In data set [1] the target is T1, Brd4 bromodomain (Homo sapiens, UniProt O60885).
T1 construct: glutathione-S-transferase (GST) and His-tagged bromodomain; made in house
The data set can be described thus: Alpha-screen enzyme assay (bromodomain binding to acetylated histone peptide).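 As to all read-outs here: AlphaScreen proximity readout pairing streptavidin donor beads with anti-GST acceptor beads, with hits checked against bead interference using a TruHit control kit.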 To be noted: for inhibitory activity against Brd4 bromodomain (in words) / IC50: alpha-screen assay; for IC50: inhibition of bromodomain binding activity, calculated with Prism6.
Protocol: Bromodomain was prepared as previously described. […] Streptavidin-coated donor beads and anti-GST alpha-screen acceptor beads were added under low-light condition. […] The alpha-screen results were confirmed by using alpha-screen TruHit kits (PerkinElmer, USA).

A short description of data set [2]: Cell cytotoxic assay in Ty82 cells. Format: cell-based. Particulars: human, Ty82 cells; Ty82 cell cytotoxic activity, 72 h. Here is the method:
(§1) For the viability experiments, Ty82 cells were seeded in 96-well plates at 30% confluency and exposed to chemicals the next day. After 72 h, WST-1 reagent was added, and absorbance at 450 nm was measured by using a Spectramax spectrophotometer (Molecular Devices, San Jose, CA, USA) in accordance with the manufacturer’s instructions. The CC50 values were calculated by using GraphPad Prism version 5 for Windows. The curves were fitted using a nonlinear regression model with a log (inhibitor) versus response formula.

For another data set, the system named is Ty82 cells. The data set can be described thus: Cell cytotoxic assay in Ty82 cells. Format: cell-based. To be noted: Homo sapiens; for CC50: Ty82 cell cytotoxic activity, 72 h; for IC50: TY82, cell cytotoxic activity (Table 4 head prints IC50). Here is the method: as §1
A further data set relates to c-MYC. Nature of the data set: Western blot of c-MYC level in NALM6 cells. The format is cell-based. Particulars: 18 h treatment. Here is the method:
For immunoblotting, cells were washed in PBS, lysed in 1× sample buffer (50 mmol/L Tris-HCl (pH 6.8), 10% glycerol, 2% SDS, and 3% β-mercaptoethanol), and boiled for 10 min. Lysates were subjected to SDS-PAGE followed by blotting with the indicated antibodies and detection by western blotting substrate ECL reagent (Thermo Fisher Scientific, Waltham, MA, USA). Images were produced using a SensiQ-2000 (Lugen Sci Co., Seoul, KOREA). The following antibodies were obtained from Cell Signaling Technology (Danvers, MA, USA): c-Myc (catalog no. 5605). Tubulin antibody (catalog no. T6199) was purchased from Sigma-Aldrich. HRP-conjugated anti-mouse (catalog no. NCI1430KR), and HRP-conjugated anti-rabbit (catalog no. NCI1460KR) antibodies were obtained from Thermo Scientific.
(Immunoblotting shows a protein as a band on a membrane.)

The test system of data set [3] is Brd4 bromodomain. The arrangement: method as in PMID 29928885. Particulars: cited from earlier work.

Values joined by “and” are separate entries in the source; they are usually repeats but may differ in a detail not shown here. Equal entries are not always repeated.

For orientation: IC50 means the concentration that gives 50% inhibition. The term CC50 denotes the concentration at which the toxic effect on the cells reaches its halfway point. A high value points to lower toxicity to the cells. For orientation: melting point means the temperature of the solid-liquid transition. The molecule `CCN(CC)c1ccc2c3c1Oc1ccc(OCC(C)C)cc1C=C3N(C)C2=O` [Compound 8ca] came in with a melting point of 183 to 185 °C. Moreover, at Brd4 bromodomain [1], the “inhibitory activity against Brd4 bromodomain (in words)” value is on record as “no inhibitory activity” and the IC50 was over 32 µM. This molecule registered a cytotoxic concentration (CC50) at 72 h in data set [2] of over 20 µM.

Molecule `COc1ccc2c(c1)C=C1c3c(ccc(OC)c3O2)C(=O)N1C` [Compound 8bc, 5,9-Dimethoxy-1-methylbenzo[6,7]oxepino[4,3,2-cd]isoindol-2(1H)-one] had a melting point of 194 to 196 °C. For the same molecule, the “increase in activity compared with 8ba” value at Brd4 bromodomain [1] (Brd4 IC50 ratio) was 40 fold. The IC50 on Brd4 bromodomain [1] is 0.41 µM. For the same molecule, in the data set with Ty82 cells, the half-maximal cytotoxic concentration (CC50) was 0.66 µM. Also, in the data set with c-MYC, the c-MYC level entry was “significantly decreased”.

In turn, `COc1ccc2c(c1OCCCOc1ccccc1)Oc1c(OC)ccc3c1C(=C2)N(C)C3=O` [Compound 8ad, 5,8-Dimethoxy-1-methyl-7-(3-phenoxypropoxy)benzo[6,7]oxepino[4,3,2-cd]isoindol-2(1H)-one] yielded a melting point of 189 to 191 °C. At Brd4 bromodomain [1], the IC50 is 7.08 µM and 7.07 µM. In the data set with Ty82 cells, the cytotoxic concentration (CC50) was over 4 µM.

Molecule `CCN(CC)c1ccc2c3c1Oc1ccc(OCc4ccccc4)cc1C=C3N(C)C2=O` [Compound 8cd, 9-(Benzyloxy)-5-(diethylamino)-1-methylbenzo[6,7]oxepino[4,3,2-cd]isoindol-2(1H)-one] yielded a melting point of 185 to 188 °C. Also, the half-inhibitory concentration (IC50) on Brd4 bromodomain [1] was over 32 µM. Besides, in the data set on Ty82 cells, the cytotoxic concentration (CC50) is over 20 µM.

Molecule `CCOc1ccc2c3c1Oc1c(ccc(OC)c1OCCc1ccc(OC)cc1)C=C3N(C)C2=O` [Compound 8af, 5-Ethoxy-8-methoxy-7-(4-methoxyphenethoxy)-1-methylbenzo[6,7]oxepino[4,3,2-cd]isoindol-2(1H)-one] showed a melting point of 189 to 191 °C. Moreover, at Brd4 bromodomain [1], the “inhibitory activity against Brd4 bromodomain (in words)” value is on record as “weak inhibitory effect” and the IC50 was 5.33 µM. The molecule further came in with a CC50 with Ty82 cells of over 4 µM.

Regarding `CCOc1ccc2c3c1Oc1ccc(OC)cc1C=C3N(C)C2=O` [Compound 8bk, 5-Ethoxy-9-methoxy-1-methylbenzo[6,7]oxepino[4,3,2-cd]isoindol-2(1H)-one], the melting point is 214 to 216 °C. At Brd4 bromodomain [1], the IC50 is 0.86 µM. The molecule also returned a CC50 with Ty82 cells of 0.49 µM. The c-MYC level entry in the data set with c-MYC is listed as “significantly decreased”.

Take `CCCc1ccc2c3c1Oc1ccc(C(F)(F)F)cc1C=C3N(C)C2=O` [Compound 8db, 1-Methyl-5-propyl-9-(trifluoromethyl)benzo[6,7]oxepino[4,3,2-cd]isoindol-2(1H)-one]: the melting point was in the range of 239 to 241 °C. Also, at Brd4 bromodomain [1], the concentration for half-maximal inhibition (IC50) is over 32 µM. This molecule registered an IC50 with Ty82 cells of over 20 µM.

In turn, `CCCc1ccc2c3c1Oc1cc4c(cc1C=C3N(C)C2=O)OCO4` [Compound 8de, 1-methyl-5-propyl-[1,3]dioxolo[4”,5”.4′,5′]benzo[1′,2′:6,7]oxepino[4,3,2-cd]isoindol-2(1H)-one] had a melting point of 257 to 259 °C. Further, the 50% inhibitory concentration (IC50) on Brd4 bromodomain [1] was 2.69 µM. Half-maximal inhibition with Ty82 cells (IC50) required 4.5 µM.

On to `COc1ccc2c(c1OC)Oc1c(OC)ccc3c1C(=C2)N(C)C3=O` [aristoyagonine], for which, in the data set with Brd4 bromodomain [3], the “inhibition of binding of Brd4 bromodomain to acetylated histone peptide (in words)” value was “efficiently inhibited”.

The molecule `COc1ccc2c3c1Oc1ccc(O)cc1C=C3N(C)C2=O` [Compound 8bd, 9-Hydroxy-5-methoxy-1-methylbenzo[6,7]oxepino[4,3,2-cd]isoindol-2(1H)-one] had a melting point of 177 to 179 °C. At Brd4 bromodomain [1], the half-maximal inhibitory concentration (IC50) is 0.41 µM. In addition, in the data set with Ty82 cells, the CC50 was 0.54 µM.

With `CCN(CC)c1ccc2c3c1Oc1cc4c(cc1C=C3N(C)C2=O)OCO4` [Compound 8ce, 5-(Diethylamino)-1-methyl-[1,3]dioxolo[4”,5”.4′,5′]benzo[1′,2′:6,7]oxepino[4,3,2-cd]isoindol-2(1H)-one], the melting point was in the range of 199 to 201 °C. In addition, on Brd4 bromodomain [1], the half-maximal inhibitory concentration (IC50) was 7.29 µM. This molecule came in with a CC50 in the data set with Ty82 cells of 10 µM.

`CCCc1ccc2c3c1Oc1ccc(OCC(C)C)cc1C=C3N(C)C2=O` [Compound 8da, 9-Isobutoxy-1-methyl-5-propylbenzo[6,7]oxepino[4,3,2-cd]isoindol-2(1H)-one]: the melting point is 196 to 199 °C. At Brd4 bromodomain [1], the half-inhibitory concentration (IC50) is 6.64 µM. The molecule also showed a half-maximal inhibitory concentration (IC50) with Ty82 cells of 10 µM.

These data come from publication PMC8002823, “Synthesis and Structure–Activity Relationships of Aristoyagonine Derivatives as Brd4 Bromodomain Inhibitors with X-ray Co-Crystal Research” (Molecules, 2021).
